In patent US9908848B2, “Amide derivatives of lactam based N-acylethanolamine acid amidase (NAAA) inhibitors” (The Regents of the University of California, priority 2013, dated 2018):

Key:
r-NAAA = target: T1, r-NAAA (Rattus norvegicus, UniProt Q5KTC7); experiment: UPLC/MS r-NAAA assay; type: biochemical; conditions: rat lung lysosomal NAAA preparation
T1 construct: Lysosomal NAAA protein preparation was obtained by homogenizing male Sprague-Dawley rat lungs; tissue Charles River; host or cells: male Sprague-Dawley rat lung, soluble lysosomal fraction
T1 sequence (Q5KTC7 34-362): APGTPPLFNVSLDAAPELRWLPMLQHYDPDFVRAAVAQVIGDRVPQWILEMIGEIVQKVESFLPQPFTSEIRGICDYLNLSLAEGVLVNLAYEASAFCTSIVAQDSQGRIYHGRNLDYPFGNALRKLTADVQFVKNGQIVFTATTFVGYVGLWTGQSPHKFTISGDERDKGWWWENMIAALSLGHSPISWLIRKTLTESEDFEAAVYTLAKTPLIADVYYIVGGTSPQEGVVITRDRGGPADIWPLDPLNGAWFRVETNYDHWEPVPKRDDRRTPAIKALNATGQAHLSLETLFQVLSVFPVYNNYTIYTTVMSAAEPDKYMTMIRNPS
Experimental: Lysosomal NAAA protein preparation was obtained by homogenizing male Sprague-Dawley rat lungs (Charles River) in 20 mM Tris-HCl buffer pH 7.4 containing 0.32M sucrose. Samples were centrifuged at 800×g for 15 min at 4° C. Supernatants were centrifuged at 12,000×g for 30 min at 4° C. Pellets were then resuspended in PBS pH 7.4 and subjected to a freeze/thaw cycle at −80° C. The suspension was finally centrifuged at 105,000 g for 1 h at 4° C. The supernatant was used in enzymatic assays.
NAAA preparations were pre-incubated with various concentrations of test compounds or vehicle control in 100 mM NaH2PO4/Citrate buffer, 1% Triton-X, 3 mM DTT (pH 4.5) for 30 min at 37° C. Samples were incubated with heptadecenoylethanolamide (50 μM, Avanti Polar Lipids) at 37° C. for 30 min. The reaction was terminated by addition of cold methanol containing heptadecanoic acid (NuCheck Prep) as internal standard. Samples were analyzed by UPLC/MS (Acquity, Waters). Heptadecenoic and heptadecanoic acids were eluted on an Acquity UPLC BEH C18 column (50 mm length, 2.1 mm i.d., 1.7 μm pore size, Waters) isocratically at 0.5 mL/min for 1.5 min with a solvent mixture of 95% methanol and 5% H2O, both containing 0.25% Acetic Acid and 5.0 mM ammonium acetate. The column temperature was 40° C. Electrospray ionization was in the negative mode, capillary voltage was 0.5 kV, cone voltage was […], desolvation temperature was 500° C. N2 was used as drying gas at a flow rate of 1000 L/hour and a temperature of 500° C. The [M−H]^− ion was monitored in the selected-ion monitoring mode (m/z values: heptadecenoic acid 267.37, heptadecanoic acid 269.37). Calibration curves were generated using commercial heptadecenoic acid (NuCheck Prep) Inhibition of NAAA activity was calculated as reduction of heptadecenoic acid in the samples compared to vehicle controls. IC50 values were calculated by non-linear regression analysis of log [concentration]/inhibition curves using GraphPad Prism 5 (GraphPad Software Inc., CA—USA) applying a standard slope curve fitting.

human NAAA = target: T2, human NAAA (Homo sapiens, UniProt Q02083); experiment: Fluorogenic h-NAAA assay; type: biochemical; conditions: recombinant HEK-hNAAA preparation
T2 construct: made in house; host or cells: HEK293 cells, stably transfected; soluble fraction after freeze/thaw
T2 sequence (Q02083 29-359): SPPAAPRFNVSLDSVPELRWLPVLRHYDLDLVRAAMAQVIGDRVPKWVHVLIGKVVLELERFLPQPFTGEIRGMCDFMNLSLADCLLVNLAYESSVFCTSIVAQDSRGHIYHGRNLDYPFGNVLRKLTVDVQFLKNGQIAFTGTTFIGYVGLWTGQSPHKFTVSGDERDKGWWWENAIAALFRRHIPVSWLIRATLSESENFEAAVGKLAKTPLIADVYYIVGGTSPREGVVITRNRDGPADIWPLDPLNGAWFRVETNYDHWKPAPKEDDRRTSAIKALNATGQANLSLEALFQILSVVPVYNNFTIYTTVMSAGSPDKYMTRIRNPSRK
Experimental: Hek293 cells stably transfected with the human NAAA coding sequence cloned from a human spleen cDNA library were used as enzyme source. Recombinant HEK-hNAAA pellets were resuspended in homogenizing buffer, and sonicated. Samples were centrifuged at 800×g for 15 min at 4° C. and the supernatants were ultracentrifuged at 12,000×g for 30 min at 4° C. The pellets were resuspended in PBS pH 7.4 on ice and subjected to a freeze/thaw cycle at −80° C. (two freeze/thaw cycles at −80° C. for Examples 34-37). The suspension was finally centrifuged at 105,000×g for 1 h at 4° C. Protein concentration was measured and samples stored at −80° C. until use.
The assay was run in Optiplate 96-wells black plates, in a total reaction volume of 200 μL. NAAA protein preparation (4.0 μg for Examples except 34-37, which were 20.0 μg) was pre-incubated for 10 min with various concentrations of test compounds or vehicle control (5% DMSO) in 100 mM citrate/phosphate buffer (pH 4.5) containing 3.0 mM DTT, 0.1% Triton X-100, 0.05% BSA, 150 mM NaCl. N-(4-methyl-2-oxo-chromen-7-yl)-hexadecanamide was used as a substrate (5.0 μM) and the reaction carried over for 30 min at 37° C. The samples were then read in a Perkin Elmer Envision plate reader using an excitation wavelength of 360 nm and emission 460 nm. IC50 values were calculated by non-linear regression analysis of log [concentration]/inhibition curves using GraphPad Prism 5 (GraphPad Software Inc., CA—USA) applying a standard slope curve fitting.

O=C(CCCCCCc1ccccc1)N[C@H]1CNC1=O [Example 7, 7-Phenyl-N-[(3S)-2-Oxoazetidin-3-yl]-heptanamide]
IC50 (r-NAAA): 2100 nM
IC50 (human NAAA): 334 nM

CCCCCCCCC(=O)N[C@H]1CNC1=O [Example 3, N-[(3S)-2-Oxoazetidin-3-yl]-nonanamide]
IC50 (r-NAAA): 240 nM
IC50 (human NAAA): 108 nM
